Measured values from US11464867B2, “Multimeric elastin-like polypeptides” (University of Southern California, priority 2018, dated 2022).
Like-named read-outs stand apart in the source and are kept apart here. Each block holds one compound with its values, some of them ahead of it.

Legend:
[1] = CsA encapsulation by two-phase solvent evaporation, RP-HPLC; assay type: physicochemical; conditions: FIG. 16
Protocol: The mixture was incubated at 37° C. and samples were collected at different time points up to 48 h.
This was followed by high-speed centrifugation and filtration to remove the excess insoluble drug. […] The mobile phase flow rate was set to 1.0 ml/min. The linear gradient from 20% to 95% of methanol was applied from 0 to 5 min. Then the mobile phase was changed to 95% methanol isocratic flow for 10 min.
This was followed by high-speed centrifugation and filtration to remove the excess insoluble drug. The loading ratio was then determined by reversed-phase high-performance liquid chromatography (RP-HPLC) analysis method.
The drug loading capability of 2nd and 3rd generation carriers were also tested using the same encapsulation method detailed above employing the method of Shi, et al., 2013.

[2] = Phase transition temperature by optical density (UV-Vis, 350 nm) versus temperature; assay type: physicochemical; conditions: 25 μM; Table 5
Protocol: The temperature with the maximum positive slope was defined as the phase transition temperature for each condition. (FIG. 2B) The concentration-temperature phase diagram was determined for both ELPs, and fit to the following equation: Tt=b−m Log10[CELP].
Both ELPs at different concentrations (5 μM to 100 μM) were subject to a precisely controlled temperature increase from 25 to 75° C. at a rate of 1° C./min. The Tt of ELPs is defined as the temperature at which the first derivative of the optical density with respect to the temperature reaches a maximum.

[3] = Isothermal titration calorimetry of 5FA/Rapa interaction; assay type: binding; conditions: ITC
Excerpt: Using Isothermal Titration calorimetry (ITC), the binding stoichiometry of 5FA/Rapa interaction was estimated to be 5. […] An overall negative Gibbs free energy (−10 kJ/mol interactions) indicates FKBP/Rapa binding is thermodynamically favorable.

[4] = cited from earlier work
Pin1 = Pin1 (Homo sapiens, UniProt Q13526); conditions: cited from earlier work
Sequence of Pin1 (Q13526 whole entry): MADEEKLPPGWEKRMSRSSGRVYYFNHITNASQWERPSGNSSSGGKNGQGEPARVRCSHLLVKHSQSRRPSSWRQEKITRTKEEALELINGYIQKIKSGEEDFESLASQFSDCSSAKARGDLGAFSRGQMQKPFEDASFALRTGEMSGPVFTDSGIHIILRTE

[5] = tested on: IL-2 secretion, Jurkat cells; test: IL-2 secretion assay in activated Jurkat cells (ELISA); assay type: cell-based; conditions: Homo sapiens, n=3, mean±SD
Protocol: Upon stimulation, Jurkat cells produce IL-2.
IL-2 concentration in culture media is then assessed using ELISA assay.

[6] = Multivariate fit of the phase diagram of ELP monoblock copolymers; assay type: physicochemical
Excerpt: The Tt of the ELP component can be modified by varying ELP chain length, as the Tt generally increases with decreasing MW. For polypeptides having a molecular weight >100,000, the hydrophobicity scale developed by Urry et al. (PCT/US96/05186, which is hereby incorporated by reference in its entirety) is preferred for predicting the approximate Tt of a specific ELP sequence. However, in some embodiments, ELP component length can be kept relatively small, while maintaining a target Tt, by incorporating a larger fraction of hydrophobic guest residues (e.g., amino acid residues having hydrophobic side chains) in the ELP sequence. For polypeptides having a molecular weight <100,000, the Tt may be predicted or determined by the following function:
[formula] where Tc is a critical transition temperature, m is the dependence on the natural logarithm of concentration, n is the dependence on the inverse of the ELP length l, and k is an interaction term between length and concentration.

Compound: 3(CA)C: 3rd generation carrier CypA-A24-CypA-A24-CypA-A24-CypA, SEQ ID NO: 9
- CsA loading ratio [1]: 209.0%

- binding enthalpy [3]: −58 kJ/mol interactions
- Kd ([3]; true KD likely lower, beyond limit of detection, read-out: equilibrium dissociation constant (KD)): ≤ 1.5 nM
Compound: 5FA: 5 FKBP domains linked by ELP A24, SEQ ID NO: 10
- Transition temperature at 25 μM [2]: 53.2 °C
- Gibbs free energy [3]: −10 kJ/mol interactions
- TAS [3]: −48 kJ/mol interactions

Compound: 5FV: 5 FKBP domains linked by ELP V24, SEQ ID NO: 11
- Transition temperature at 25 μM [2]: 27.7 °C

Compound: CC1=C(/C=C/C(C)=C/C=C/C(C)=C/C(=O)O)C(C)(C)CCC1 [ATRA, All trans retinoic acid]
- AUC on 28th day of administration relative to AUC on day 1 ([4]; daily treatment): 10%
- half-life ([4]; in vivo): 45 min
- affinity to Pin1 (Pin1): sun-micromolar affinity

- IC50 ([5]; PMA and Ionomycin, 6 h, read-out: IC50, IL-2 secretion assay): 0.522 ± 0.152 nM
- IC50 ([5]; FIG. 10 legend, read-out: IC50, IL-2 inhibition): 0.522 ± 0.152 nM
Compound: C/C=C/C[C@@H](C)[C@@H](O)[C@H]1C(=O)N[C@@H](CC)C(=O)N(C)CC(=O)N(C)[C@@H](CC(C)C)C(=O)N[C@@H](C(C)C)C(=O)N(C)[C@@H](CC(C)C)C(=O)N[C@@H](C)C(=O)N[C@H](C)C(=O)N(C)[C@@H](CC(C)C)C(=O)N(C)[C@@H](CC(C)C)C(=O)N(C)[C@@H](C(C)C)C(=O)N1C [CsA, Cyclosporin A]

Compound: (Val-Pro-Gly-Ala-Gly): ELP monoblock library, SEQ ID NO: 61 (VPGAG)
- Tc ([6]; critical transition temperature): 40.5 ± 1.6 °C
- n ([6]; dependence on inverse of ELP length): 7009 ± 345 °C pentamers
- m ([6]; dependence on natural logarithm of concentration): 0 ° C./ln(μM)
- K ([6]; interaction term between length and concentration): −850.1 ± 51.5 °C pentamers/ln(μM)
